Earlier results as cited in patent publication US11980186B2, “Preparation method of eucalyptol emulsion and application thereof in biopesticides” (Jiangnan University, priority 2021, dated 2024).
Converted amounts (≈) assume the structure as drawn.

Test system: B. tabaci
Conditions: literature value

For `O=C1CCC[C@@H]2[C@H]3CCCN4CCC[C@@H](CN12)[C@@H]34` [matrine], the “LC50 against the B. tabaci” value is given as 13.35 µg/mL (≈ 53.8 µM).
